According to patent US9233978B2, “6-fused heteroaryldihydropyrimidines for the treatment and prophylaxis of hepatitis B virus infection” (Hoffmann-La Roche Inc., priority 2014, dated 2016):
pEC50: −log10 of the molar value. In brackets after ≈: the same amount, converted by molar mass.

How the values were obtained:
HBV [1] = details: HBV infected transgenic mouse or humanized mouse models; cited from earlier work
HBV [2] = test: Anti-HBV activity in vitro, HepG2.2.15 cells, extracellular HBV DNA by qPCR; format: cell-based; details: Hepatitis B virus, HepG2.2.15, 120 h, HepG2.2.15 cells; HBV replication inhibited by 50%, extracellular HBV DNA by qPCR; five days after compound treatment; read-out: EC50
How it was run: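 HBV-producing HepG2.2.15 cells were seeded and left overnight at 37 °C, then treated with half-log serial compound dilutions at a final 0.5% DMSO. After 5 days, viral DNA was extracted from the supernatant and extracellular HBV DNA was quantified by qPCR.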

Lysa solubility = format: physicochemical; details: phosphate buffer, pH 6.5, aqueous buffer, thermodynamic from solid, 0.05 M phosphate buffer (pH 6.5)
How it was run: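 Duplicate samples dried from 10 mM DMSO stocks, taken up in 0.05 M phosphate buffer pH 6.5, stirred 1 h, shaken 2 h and left overnight. Filtrate and 1/10 dilution quantified by direct UV or HPLC-UV, in μg/mL; above 80% of the calculated maximum, reported as greater than that value.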

CYP3A4 = test: Cytochrome P450 induction screening assay, mRNA induction in human cryopreserved hepatocytes; format: in vitro ADME; details: CYP3A4 mRNA relative induction, 24 hours, test compound up to 10 μM
Experimental: Human cryopreserved hepatocytes (Life Technologies, Carlsbad, USA) were thawed and cultured in collagen I coated 96-well plates with a density of 52,000 cells/well. After attachment, medium was changed and cells were pre-cultured overnight in hepatocyte maintenance medium (HMM; Lonza, Switzerland).
Test compounds were dosed to the cells next morning at an indicated concentration (up to 10 μM) in HMM culture media containing gentamycin and a constant 0.1% DMSO. Similarly, dilutions of the positive inducer compounds omeprazole (prototypical inducer of human CYP1A2; final concentrations: 1 and 10 μM), phenobarbital (prototypical inducer of human CYP2B6; final concentrations: 100 and 1000 μM) and rifampicin (prototypical inducer of human CYP3A4; final concentrations: 1 and 10 μM) were prepared from 1000 fold DMSO stock solutions in HMM containing gentamycin. Medium change was then performed and cells were exposed for 24 hours to test compounds, positive inducer compounds, or vehicle (0.1% DMSO), respectively.
At the end of the compound exposure period, medium was removed and cells lysed using 100 μL/well MagNA Pure LC RNA isolation tissue lysis buffer (Roche Diagnostics AG, Rotkreuz, Switzerland). Plates were then sealed and frozen at −80° C. until further workup.
mRNA isolation was performed using the MagNA Pure 96 system (Roche Diagnostics AG, Rotkreuz, Switzerland) and the respective cellular RNA large volume kit (Roche Diagnostics AG, Rotkreuz, Switzerland) from thawed samples diluted 1:1 with PBS. The volume of the cell lysis and an elution volume of 100 μL were used. 20 μl of the resulting mRNA suspension was then used for reverse transcription using 20 μl of the transcript or first stand cDNA synthesis kit (Roche prime Supply, Mannheim, Germany). The resulting cDNA was diluted with 40 μl of H2O before using for qRT-PCR. qRT-PCR was performed by using the forward and the reverse primer, the corresponding UPL (all from Microsynth, Balgach, Switzerland) and the Taqman Fast advanced master mix (Applied Biosystems), on an ABI 7900 machine (Applied Biosystems).
qRT-PCR Ct-values for the respective P450s were put into relation to the Ct-value of RN18S1 (microsynth, Balgach, Switzerland) of the same sample. Doing so, a respective Δct-value was calculated. Using the average of all Δct-values for the vehicle control samples, a ΔΔct-value was calculated for each sample (ΔΔct-value(sample)=Δct-value(sample)−average of Δct-value of all vehicle controls). The fold induction of the respective sample was calculated as 2^(−ΔΔct). The individual fold induction values were then averaged per treatment condition (usually n=3 biological replicates).
Relative induction values to the respective positive inducer compound condition (10 μM omeprazole for CYP1A2; 1000 μM Phenobarbital for CYP2B6; 10 μM rifampicin for CYP3A4) were then calculated from the fold induction values as follows: Relative induction (%)=100×(T−V)/(P−V)

[3] = Human microsomal metabolic stability; format: in vitro ADME; details: human microsomes 0.5 mg/mL, 1 μM test compound, NADPH, 37° C., pH 7.4, 0-30 minutes
How it was run: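 1 μM compound with 0.5 mg/mL human liver microsomal protein in 100 mM phosphate pH 7.4 at 37° C, started with 1 mM NADPH or a NADPH-regenerating system. Sampled at 0–30 min, quenched in cold methanol with tolbutamide internal standard; remaining parent quantified by LC-MS/MS.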

[4] = Cytotoxicity in HepDE19 cells (CCK-8) and selectivity index; format: cell-based; details: human, HepDE19 cells; CCK-8 cell viability; five days after treatment
How it was run: (§1)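 HepDE19 cells (DMEM-F12, 10% FBS) were treated with compound for five days, then given CCK-8 for 2 h at 37 °C and read at OD450 and OD630. CC50 is the concentration killing 50% of host cells. Selectivity index is CC50/EC50.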

HepDE19 cells = test: as above; format: cell-based; details: CC50 (HepDE19) value / EC50 (HepG2.2.15) value
How it was run: as §1

SMILES | in vivo efficacy (HBV DNA reduction) (HBV [1]) | pEC50 (HBV [2]) | solubility thermodynamic (Lysa solubility) | % of Positive control (10 μM Rifampicin) (CYP3A4) | Human Microsomal Clearance [3] | CC50 at 5 days [4] | Selectivity index (CC50/EC50) (HepDE19 cells)
COC(=O)C1=C(C)NC(c2ncc(F)cc2F)=N[C@H]1c1ccc(F)cc1Cl [Bay 41-4109] | demonstrated in vivo efficacy with HBV DNA reduction | – | – | – | – | – | –
COC(=O)C1=C(CN2CCN3C(=O)N(CC4(C(=O)O)CCC4)C[C@@H]3C2)NC(c2nccs2)=N[C@H]1c1ccc(F)cc1Cl [Example 59, (R)-6-[(S)-2-(1-Carboxy-cyclobutylmethyl)-3-oxo-hexahydro-imidazo[1,5-a]pyrazin-7-ylmethyl]-4-(2-chloro-4-fluoro-phenyl)-2-thiazol-2-yl-1,4-dihydro-pyrimidine-5-carboxylic acid methyl ester] | – | 7.96 | > 685 µg/mL | 2.2% | 2.3 mL/min/kg | > 100000 nM | >9091
CCOC(=O)C1=C(CN2CCN3C(=O)N(C(C)(C)CC(=O)O)C[C@@H]3C2)NC(c2nccs2)=N[C@H]1c1cccc(F)c1Cl [Example 34, 3-[(8aS)-7-[[(4R)-4-(2-chloro-3-fluoro-phenyl)-5-ethoxycarbonyl-2-thiazol-2-yl-1,4-dihydropyrimidin-6-yl]methyl]-3-oxo-5,6,8,8a-tetrahydro-1H-imidazo[1,5-a]pyrazin-2-yl]-3-methyl-butanoic acid] | – | 8.10 | 326 µg/mL (≈ 527 µM) | 0.2% | 1.8 mL/min/kg | 81000 nM | 10655
CCOC(=O)C1=C(CN2CCN3C(=O)N(C)C[C@H]3[C@@H]2C(=O)O)NC(c2nccs2)=N[C@H]1c1cccc(F)c1Cl (single isomer, unassigned) [Example 91B] | – | 8.70 | > 705 µg/mL | 1.7% | 5.8 mL/min/kg | > 100000 nM | >50000
COC(=O)C1=C(CN2CCN3C(=O)N(C(C)(C)C)C[C@@H]3[C@H]2C(=O)O)NC(c2nccs2)=N[C@H]1c1ccc(F)c(F)c1C (single isomer, unassigned) [Example 88B] | – | 8.30 | > 745 µg/mL | 3.7% | 4.5 mL/min/kg | > 100000 nM | >20000
COC(=O)C1=C(CN2CCN3C(=O)N(CCC(C)(C)C(=O)O)C[C@@H]3C2)NC(c2nccs2)=N[C@H]1c1ccc(F)cc1Cl [Example 54, 4-[(8aS)-7-[[(4R)-4-(2-chloro-4-fluoro-phenyl)-5-methoxycarbonyl-2-thiazol-2-yl-1,4-dihydropyrimidin-6-yl]methyl]-3-oxo-5,6,8,8a-tetrahydro-1H-imidazo[1,5-a]pyrazin-2-yl]-2,2-dimethyl-butanoic acid] | – | 8.10 | 387 µg/mL (≈ 625 µM) | 0% | 4.6 mL/min/kg | > 100000 nM | >12500
CCOC(=O)C1=C(CN2CCN3C(=O)N(CC(C)(C)C(=O)O)C[C@@H]3C2)NC(c2nccs2)=N[C@H]1c1cccc(F)c1Cl [Example 19, 3-[(8aS)-7-[[(4R)-4-(2-chloro-3-fluoro-phenyl)-5-ethoxycarbonyl-2-thiazol-2-yl-1,4-dihydropyrimidin-6-yl]methyl]-3-oxo-5,6,8,8a-tetrahydro-1H-imidazo[1,5-a]pyrazin-2-yl]-2,2-dimethyl-propanoic acid] | – | 8.52 | > 727 µg/mL | 1% | 0.4 mL/min/kg | > 100000 nM | >30303
CCOC(=O)C1=C(CN2CCN3C(=O)N(CC(C)(C)C(=O)O)C[C@@H]3C2)NC(c2nccs2)=N[C@H]1c1cccc(F)c1C [Example 76, 3-[(8aS)-7-[[(4S)-5-ethoxycarbonyl-4-(3-fluoro-2-methyl-phenyl)-2-thiazol-2-yl-1,4-dihydropyrimidin-6-yl]methyl]-3-oxo-5,6,8,8a-tetrahydro-1H-imidazo[1,5-a]pyrazin-2-yl]-2,2-dimethyl-propanoic acid] | – | 8.15 | 565 µg/mL (≈ 944 µM) | 1.3% | 0.8 mL/min/kg | > 100000 nM | >14286
COC(=O)C1=C(CN2CCN3C(=O)N(CC4(C(=O)O)CC4)C[C@@H]3C2)NC(c2nccs2)=N[C@H]1c1ccc(F)c(F)c1C [Example 38, 1-[[(8aS)-7-[[(4S)-4-(3,4-difluoro-2-methyl-phenyl)-5-methoxycarbonyl-2-thiazol-2-yl-1,4-dihydropyrimidin-6-yl]methyl]-3-oxo-5,6,8,8a-tetrahydro-1H-imidazo[1,5-a]pyrazin-2-yl]methyl]cyclopropanecarboxylic acid] | – | 8.30 | 627 µg/mL (≈ 1040 µM) | 0.2% | 2.0 mL/min/kg | 100000 nM | 21276
